IC50 data for seven compounds are collected here from patent US8124807B2, “Sulfonyl-substituted 6-membered ring derivative” (MSD K.K., priority 2007, dated 2012).

The target of this assay is T1, human LCE (Homo sapiens, UniProt Q9H5J4).
T1 sequence (Q9H5J4 1-265): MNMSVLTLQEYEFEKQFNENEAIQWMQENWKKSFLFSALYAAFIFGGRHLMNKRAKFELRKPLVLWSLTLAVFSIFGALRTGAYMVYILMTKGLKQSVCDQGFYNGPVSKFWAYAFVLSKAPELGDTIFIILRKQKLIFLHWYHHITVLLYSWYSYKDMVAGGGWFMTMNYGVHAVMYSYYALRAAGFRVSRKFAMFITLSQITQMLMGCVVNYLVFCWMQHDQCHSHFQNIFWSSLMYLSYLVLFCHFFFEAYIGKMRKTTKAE
Kind of assay: LCE enzyme activity-inhibitory test. In kind it is biochemical. The settings on record: palmitoyl CoA and [14C]-malonyl CoA substrates, pH 6.5, 37° C., 90 minutes. As to the method: A test compound was dissolved in dimethyl sulfoxide (DMSO to be 10 mM), and then diluted with DMSO to prepare a 1000-fold concentrated solution of the test concentration. An improved Moon et al's method (J. Biol. Chem., Vol. 276, pp. 45358-45366, 2001) was employed for the LCE enzyme activity-inhibitor test. Concretely, the diluted compound was applied to a 96-well assay plate (Corning, 96-well assay block) in an amount of 1.0 μL/well; 50 μL of a phosphate buffer solution (100 mM potassium phosphate buffer, pH 6.5), and 25 μL of a substrate solution (100 mM potassium phosphate buffer (pH 6.5), 4.0 μM rotenone, 80 μM fatty acid-free bovine serum albumin, 160 μM palmitoyl CoA, 80 μM malonyl CoA, 3.5 μM [^14C]-malonyl CoA (1.92 GBq/mmol, by Amersham)) were added to each well; 25 μL of an enzyme solution (100 mM potassium phosphate buffer (pH 6.5), 100 μg/mL human LCE) was added thereto; the top of the plate was airtightly sealed up; and this was incubated with gently shaking and stirring at 37° C. for 90 minutes. Next, 100 μL of 5 N hydrochloric acid was added to each well, and the assay plate was stirred at room temperature for 5 minutes to stop the enzyme reaction with hydrolyzing the acyl CoA. Next, the enzyme reaction solution in each well was adsorbed by each well of a 96-well GF/C filter plate (Perkin Elmer Unifilter 96 GF/C); the individual wells were washed with water to remove the non-adsorbed malonyl CoA; and the GF/C filter plate was dried at 50° C. for 60 minutes. Next, 30 μL of a scintillator (Perkin Elmer Microscinti 0) was added to each well; then the top of the plate was sealed up; and the fixed [^14C] radioactivity was measured with a microplate scintillation counter (Perkin Elmer TopCount) to be the enzyme activity. The human LCE enzyme-inhibitory activity of the test compound was calculated, based on the radioactivity of the DMSO-added well with no test compound therein as a control.
As a reminder, the IC50 is the concentration needed to halve the response being measured. Compound `CC(C)Oc1ccc(NC(=O)[C@@H]2CCC[C@@H](S(=O)(=O)c3ccccc3)C2)nc1` (racemic) [Example 7, (1R*,3R*)-N-(5-isopropoxypyridin-2-yl)-3-(phenylsulfonyl)cyclohexanecarboxamide] came in with an IC50 of 30 nM. As for `CC(C)Oc1ccc(NC(=O)[C@@H]2CCC[C@@H](S(=O)(=O)c3cnccn3)C2)nc1` (racemic) [Example 13, (1R*,3R*)-N-(5-isopropoxypyridin-2-yl)-3-(pyrazin-2-ylsulfonyl)cyclohexanecarboxamide], half-maximal inhibition (IC50) was put at 130 nM.

Compound `CC(C)Oc1ccc(NC(=O)[C@@H]2CCC[C@@H](S(=O)(=O)c3ncccn3)C2)nc1` (racemic) [Example 10, (1R*,3R*)-N-(5-isopropoxypyridin-2-yl)-3-(pyrimidin-2-ylsulfonyl)cyclohexanecarboxamide] displayed an IC50 of 26 nM. This IC50 lies about 5-fold lower than the previous one.

`CC(C)Oc1ccc(NC(=O)[C@@H]2CCC[C@@H](S(=O)(=O)c3ccccn3)C2)cc1` (racemic) [Example 2, (1R*,3R*)-N-(4-isopropoxyphenyl)-3-(pyridin-2-ylsulfonyl)cyclohexanecarboxamide] registered an IC50 of 233 nM. Against the preceding compound, the IC50 is about 9-fold higher. The figure for `CC(C)Oc1ccc(NC(=O)[C@@H]2CCC[C@@H](S(=O)(=O)c3ccncc3)C2)nc1` (racemic) [Example 9, (1R*,3R*)-N-(5-isopropoxypyridin-2-yl)-3-(pyridin-4-ylsulfonyl)cyclohexanecarboxamide] is 131 nM; for `CC(C)Oc1ccc(NC(=O)[C@@H]2CCC[C@@H](S(=O)(=O)c3nccs3)C2)nc1` (racemic) [Example 11, (1R*,3R*)-N-(5-isopropoxypyridin-2-yl)-3-(1,3-thiazol-2-ylsulfonyl)cyclohexanecarboxamide] it is 32 nM.

For the compound `CC(C)Oc1ccc(NC(=O)[C@@H]2CCC[C@@H](S(=O)(=O)c3ccccn3)C2)nc1` (racemic) [Example 8, (1R*,3R*)-N-(5-isopropoxypyridin-2-yl)-3-(pyridin-2-ylsulfonyl)cyclohexanecarboxamide], the IC50 came to 43 nM.
